In US10828301B2, “2,4-pyrimidinediamine compounds and their uses” (Rigel Pharmaceuticals, Inc, priority 2002, dated 2020):
pIC50: −log10 of the molar value. Where two headings read alike, the source gives them in different places.

Legend:
[1] = test system: proteins downstream of Syk kinase and LYN kinase in activated CHMC cells; assay: Phosphorylation of proteins in the FcεRI signal transduction cascade in activated CHMC cells; format: cell-based, human; conditions: FIG. 10
[2] = test system: cultured human mast cells (CHMC); assay: CHMC low cell density IgE activation: tryptase and LTC4 assays; format: cell-based; conditions: Homo sapiens, Mast cell, Low Density CHMC, anti-IgE activation, tryptase readout; read-out: CHMC anti-IgE Tryptase
Summary of the method: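 Degranulation measured after 30 min anti-IgE challenge at 37° C of CHMC plated at 1000-1500 cells/well following 1 h preincubation. Readouts: LTC4 by ELISA on donor-specific diluted supernatants, and tryptase activity from a 30 min room-temperature substrate reaction.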

[3] = test system: FcεR1-mediated degranulation in mast cells; assay: FcεRI-mediated (anti-IgE induced) degranulation assay in mast cells; format: cell-based; conditions: Mast cell; range stated for the whole listed group of compounds; read-out: inhibition of FcεR1-mediated degranulation in mast cells (IC50s)
[4] = test system: cultured human mast cells (CHMC); assay: CHMC low cell density ionomycin activation: tryptase assay; format: cell-based; conditions: Homo sapiens, Mast cell, Low Density CHMC, ionomycin activation, tryptase readout; read-out: CHMC Ionomycin Tryptase
[5] = Oral bioavailability / pharmacokinetics in rats; format: in vivo; conditions: rats
Experimental: Over 50 2,4-pyrimidinediamine compounds of the invention were tested for oral bioavailability. For the study, compounds were dissolved in various vehicles (e.g. PEG 400 solution and CMC suspension) for intravenous and oral dosing in the rats. Following administration of the drug, plasma samples were obtained and extracted. The plasma concentrations of the compounds were determined by high performance liquid chromatography/tandem mass spectrometry (LC/MS/MS) methods. Pharmacokinetic analyses were performed based on the plasma concentration data. The pharmacokinetic parameters of interest include Clearance (CL), Volume of distribution at steady-state (Vss), terminal half-life (t1/2), and oral bioavailability (% F).

[6] = target: FcγRI receptor-mediated degranulation; assay: FcγRI-mediated degranulation (activation with anti-human IgG Fab fragment); conditions: cells not primed with IgE, activated with rabbit anti-human IgG Fab fragment
[7] = test system: basophils in whole human peripheral blood; assay: Basophil ionomycin activation: histamine release assay; format: cell-based
Experimental: Assays for ionomycin-induced basophil cell degranulation were carried out as described for the Basophil IgE or Dustmite Activation Assay (Section 6.4.6, supra), with the exception that following incubation with compound, cells were stimulated with 20 μl of 2 μM ionomycin.

[8] = test system: IgE-induced degranulation of tissue mast cells; assay: Mouse model of passive cutaneous anaphylaxis (PCA); format: in vivo
Experimental: This model provides a direct measure of IgE-induced degranulation of tissue mast cells. In this model, IgE primed animals are exposed to an allergen challenge, and the change in permeability of dermal vasculature that results from histamine release from mast cells is measured by change in the amount of dye leakage into surrounding tissue. Inhibition of mediator release by compounds that modulate mast cell degranulation is easily measured by extracting the dye from the tissue.
In the PCA assay mice are passively sensitized by intradermal injection with anti-dinitrophenol (DNP) IgE antibodies (Day −1). At predetermined times animals are treated with the test agent (Day 0). The modulatory effect of the agent on cutaneous mast cell degranulation is measured following intravenous injection of DNP conjugated to human serum albumin (HSA-DNP), together with Evans blue dye. The resulting cross-linking of the IgE receptor and subsequent mast cell degranulation-induced increase in vascular permeability is determined by measuring the amount of dye extravasation into the tissue. Dye is extracted from the tissue by formamide, and the absorbance of this extract is read at 620 nm.

[9] = in vitro chromosomal aberration assay; format: cell-based
Syk kinase = Syk kinase (Homo sapiens (Human), UniProt P43405); assay: Isolated Syk kinase biochemical assay (phosphorylation of a peptide or endogenous substrate)
[10] = test system: proteins downstream of Syk kinase in activated BMMC cells; assay: Phosphorylation of proteins in the IgE receptor signal transduction cascade in activated BMMC cells; format: cell-based, mouse; conditions: varying concentrations, FIG. 7
[11] = Mouse model of allergic asthma (ovalbumin); format: in vivo
Excerpt: Mice are sensitized to ovalbumin (chicken protein) in the presence of an adjuvant (Alum) by the intraperitoneal route on day 0 and day 7. One week later, mice are challenged intranasally with ovalbumin on Days 14, 15 and 16 (more stringent model) or on Day 14 (less stringent model). This sensitization and challenge regimen leads to airway hyperresponsiveness and inflammation in the lungs, which are two dominant characteristics of human allergic asthma. In the mouse model, the in vivo airway responses are measured using a whole body plethysmograph which determines the PENH (enhanced Pause, Buxco Electronics). The PENH is a dimensionless value comprised of the peak inspiratory flow (PIF), peak expiratory flow (PEF), time of inspiration, time of expiration and relaxation time, and is considered a validated parameter of airway responsiveness. Responses to allergen challenge (OVA) are compared with animals challenged with saline only. Twenty-four hours after challenge, mice are exposed to increasing doses of methacholine (muscarinic receptor agonist) which results in smooth muscle contraction. […] In addition, a cellular infiltrate in the airway is observed in ovalbumin challenged mice when compared with the saline challenged mice. This cellular infiltrate is mainly characterized by eosinophils, but a smaller influx of neutrophils and mononuclear cells is also present.
The use of this model for the evaluation of small molecule inhibitors of mast cell degranulation has been validated is several ways. First, using mast cell deficient mice (W/W^v) it has been shown that the ovalbumin-induced responses are dependent upon the presence of mast cells.

Jurkat cells = assay: Jurkat toxicity: Cell Titer Glo assay; format: cell-based; conditions: Homo sapiens, 18 hours
Experimental: Seed 50 μl cells (1×10^6/ml) into each well containing 50 μl compound. […] Shake plates for 1 minute to mix cells and compound. Incubate plates at 37° C. […] Next day, harvest 50 μl cells from each well, add to 50 μl Cell Titer Glo reagent ([…]). Shake plates for 1 minute. Read on luminometer.

[12] = test system: bone marrow derived mast cells (BMMC); assay: BMMC high cell density IgE activation: degranulation (hexosiminidase, histamine), leukotriene (LTC4) and cytokine (TNFalpha, IL-6) assays; format: cell-based; conditions: Mus musculus, anti-IgE activation
[13] = Sheep model of allergic asthma (Ascaris suum challenge); format: in vivo; conditions: administered in an aqueous suspension
Experimental: Sheep develop bronchoconstriction within minutes of exposure to inhaled antigen (Ascaris suum), with maximal airflow obstruction during the early allergic response (EAR). Release of preformed mast cell mediators is likely responsible for this early phase of airflow obstruction. […] In the sheep, AHR develops a few hours following antigen challenge, and can persist for up to 2 weeks.
In the sheep model of allergic asthma, sheep are administered aerosols of test article via an endotracheal tube, followed by an aerosol challenge with antigen extracted from the roundworm, Ascaris suum, to which the sheep are naturally allergic. Allergen challenge leads to direct bronchoconstriction (both EAR and LAR) and a persistent non-specific AHR. These three characteristics are similar to those seen in human allergic asthmatics. The activity of the test agent is determined by changes in the lung resistance (RL), which is calculated from measurements of transpulmonary pressure, flow, and respiratory volume. […] The LAR is a less pronounced increase in RL, which starts approximately 5-6 hours following allergen challenge and is resolved by 8 hours post-challenge. Twenty-four hours after the challenge, a dose response to carbachol is measured to determine the AHR, which is expressed as the dose of carbachol required to increase RL by 400% over baseline. […]

## CC(C)(C)n1nc(-c2ccc(Cl)cc2)c2c(N)ncnc21 [PP2, reference compound]
[1]
  phosphorylation of proteins downstream of LYN kinase in the FcεRI signal transduction cascade: inhibition of phosphorylation

## CNC(=O)C1Cc2cc(Nc3ncc(F)c(Nc4ccc(OC(C)C)cc4)n3)ccc2O1 (centres unmarked) [Compound R926956, 5-Fluoro-N2-[2,3-dihydro-2-[(N-methylamino)carbonyl]benzofuran-5-yl]-N4-(4-isopropoxyphenyl)-2,4-pyrimidinediamine]
[2]
  pIC50: 6.68
[3]
  pIC50: 5.78 to 7.52
[4]
  pIC50: < 5.00

## COc1cc(Nc2ncc(F)c(Nc3ccc4c(c3)NC(=O)C(C)(C)O4)n2)cc(OC)c1 [Compound R927050]
[5]
  oral bioavailabilities and half-lives (in words): good oral bioavailabilities and half-lives in rats
[6]
  inhibition of FcγRI-mediated degranulation: inhibit FcγRI-mediated degranulation

## CNC(=O)COc1cccc(Nc2ncc(F)c(Nc3ccc4c(c3)NCCO4)n2)c1 [Compound R921219, N4-(1,4-Benzoxazin-6-yl)-5-fluoro-N2-[3-(N-methylamino)carbonylmethyleneoxyphenyl]-2,4-pyrimidinediamine]
[7]
  pIC50: < 5.00
[8]; PCA assay
  circulating exposure levels at which active: approximately 10 μg/ml
[8]; mouse, in vivo
  inhibition of the PCA response / FcεR-mediated vascular leakage (in words): dose-dependent inhibition
[1]
  phosphorylation of proteins downstream of Syk kinase in the FcεRI signal transduction cascade: inhibit phosphorylation
[9]
  clastogenic potential: not found to possess clastogenic potential
Syk kinase; increasing concentrations, FIG. 8
  Syk kinase phosphorylation of an endogenous substrate (LAT) and a peptide substrate: dose responsive inhibition
[10]
  phosphorylation of various proteins downstream of Syk kinase in the IgE receptor signal transduction cascade: inhibit phosphorylation
[11]; less stringent protocol (one challenge, Day 14), subcutaneously 70 mg/kg in 67% PEG400/33% citrate buffer, 30 minutes prior to challenge
  ovalbumin-induced airway hyperresponsiveness and cellular influx: completely blocked the ovalbumin-induced airway hyperresponsiveness and cellular influx
[11]; summary
  airway responses in a mouse model of allergic asthma: efficacious in inhibiting the airway responses

## COc1cc(Nc2ncc(F)c(Nc3cccc(O)c3)n2)cc(OC)c1 [Compound R926780, N2-(3,5-Dimethoxyphenyl)-5-fluoro-N4-(3-hydroxyphenyl)-2,4-pyrimidinediamine]
Jurkat cells
  pIC50: < 5.30
[12]; IL-6 release, read-out: BMMC anti-IgE IL-6 IC50
  pIC50: > 6.66
[12]; LTC4 release, read-out: BMMC anti-IgE LTC4 IC50
  pIC50: 6.34
[12]; TNF-alpha release, read-out: BMMC anti-IgE TNF-alpha IC50
  pIC50: > 6.66
[12]; hexosaminidase release, read-out: BMMC anti-IgE hexos IC50
  pIC50: > 6.66
[12]; histamine release, read-out: BMMC anti-IgE histamine IC50
  pIC50: > 6.66
[3]
  pIC50: 5.78 to 7.52
Syk kinase
  pIC50: 5.73 to 8.52
[4]
  pIC50: < 5.00

## Fc1cnc(Nc2ccc3cn[nH]c3c2)nc1Nc1ccc(Cl)c(Cl)c1 [Compound R935372, N4-(3,4-Dichlorophenyl)-5-fluoro-N2-(indazoline-6-yl)-2,4-pyrimidinediamine]
[5]
  oral bioavailabilities and half-lives (in words): good oral bioavailabilities and half-lives in rats
[6]
  inhibition of FcγRI-mediated degranulation: inhibit FcγRI-mediated degranulation

## CNC(=O)COc1cccc(Nc2ncc(C(F)(F)F)c(Nc3cccc(O)c3)n2)c1 [Compound R926742, N4-(3-Hydroxyphenyl)-5-trifluoromethyl-N2-[3-(N-methylamino)carbonylmethyleneoxyphenyl]-2,4-pyrimidinediamine]
[13]
  effect on the EAR (in words): failed to inhibit the EAR
[7]
  pIC50: < 5.00
[8]; oral route in a PEG-based formulation, data not shown
  inhibition of the PCA response: able to inhibit the PCA response
